Reference: paper PMC7643960 (PLoS ONE, 2020)
Where “and” joins values, the source holds several entries; their conditions need not be identical. Equal entries are not always repeated.

What was measured:
EMM cells MelDuWi [1] = assay: AnnexinV-FITC/propidium iodide staining, flow cytometry; assay type: cell-based, horse; details: double IC50 concentration
Description: (§1) Approximately 7.5 × 10^5 cells (MelDuWi) and 1.0 × 10^6 cells (PriFri2 and sRGO2) were seeded in 25 cm^2 cell culture flasks. […] Following 24 and 48 h of incubation, cells were harvested by mild trypsinization and washed twice with PBS buffer (containing Mg^2+ and Ca^2+). Cells (1.0 × 10^6) were resuspended in AnnexinV binding buffer (BioLegend®, San Diego, US) to a concentration of 1.0 ‧ 10^6 cells/mL. Approximately 100,000 cells were stained with propidium iodide solution ([…], 1 mg/mL) and FITC AnnexinV solution ([…], BioLegend®) for 15 min in the dark at room temperature. After the addition of Annexin V binding buffer ([…]), the suspension was analyzed using the Attune® FACS machine (Life Technologies). After gating for living cells, the data from detectors BL-1A and BL-3A were collected. A total of 20,000 events were collected from each sample and technical duplicates were measured.

ES cells sRGO2 = assay: as above; assay type: cell-based, horse; details: double IC50 concentration
Description: as §1

[2] = system: primary equine dermal fibroblasts PriFi1; assay: crystal violet staining assay (CVS), proliferation; assay type: cell-based, horse; details: for IC50: mean (95% CI)
Description: (§2) All cells used for the experiments originate from different horses. Primary EMM cells (MelDuWi) and primary equine dermal fibroblasts (PriFi1, PriFi2) belong to the cell culture stock of the Clinic for Horses, University of Veterinary Medicine Hannover, Foundation, Hannover, Germany.
(§3) The proliferation assay was performed as published. […] Control cells were treated with medium only. The proportion of cells treated relative to untreated controls was determined by crystal violet staining and photometric absorbance measurement at the incubation time points mentioned above. Proliferation assays were performed in six to eight biological replicates with two technical replicates for each combination of cell type, incubation time and compound concentration.
(§4) Technical duplicates with a coefficient of variation of more than 20% were excluded from the cell assay analysis. […] Additional statistical data analysis was conducted with R 3.5.1.. A generalized additive model was fitted for each test (MTS and CVS) and cell type comparison (primary EMM cells and fibroblasts, and primary ES cells and fibroblasts) using the ‘mgcv’ package. Compound concentrations and the duration of incubation were modeled as tensor product smooth interacting with compound and cell line. Cell passage was added as a random effect. An appropriate distribution was selected by the visual inspection of residuals. The p-values were obtained by performing a Wald test for each parameter. Statistical significance was set at 0.05.

primary ES cells sRGO2 = assay: crystal violet staining assay (CVS), proliferation; assay type: cell-based, horse; details: for IC50: mean (95% CI)
Description: as §2, §3, §4

primary EMM cells eRGO1 = assay: crystal violet staining assay (CVS), proliferation; assay type: cell-based, horse; details: for IC50: mean (95% CI)
Description: as §2, §3, §4

[3] = system: primary EMM cells MelDuWi; assay: crystal violet staining assay (CVS), proliferation; assay type: cell-based, horse; details: for IC50: mean (95% CI)
Description: as §2, §3, §4

primary ES cells sRGO1 = assay: crystal violet staining assay (CVS), proliferation; assay type: cell-based, horse; details: for IC50: mean (95% CI)
Description: as §2, §3, §4

[4] = system: primary equine dermal fibroblasts PriFi2; assay: crystal violet staining assay (CVS), proliferation; assay type: cell-based, horse; details: for IC50: mean (95% CI)
Description: as §2, §3, §4

[5] = system: equine malignant melanoma [EMM] cells MelDuWi; assay: SRB assay after 96 h; assay type: cell-based, horse; details: 96 h of drug exposure
Description: (§5) Approximately 7.5 × 10^5 cells (MelDuWi) and 1.0 × 10^6 cells (PriFri2 and sRGO2) were seeded in 25 cm^2 cell culture flasks. […] Following 24 and 48 h of incubation, the cells were harvested by mild trypsinization and washed twice with phosphate-buffered saline (PBS) buffer (containing Mg^2+ and Ca^2+). Cells (1.0 × 10^6) were fixed with ethanol (70%, -20°C, for 24 h). After discarding the ethanol, the cells were washed in 1 mL PBS buffer (containing Mg^2+ and Ca^2+) and were centrifuged. The cell pellet was resuspended in 1 mL of staining PBS buffer (containing Mg^2+ and Ca^2+, 10 μg/mL RNASe [Thermofisher] and 15 μg/mL propidium iodide [Sigma-Aldrich, Munich, Germany]) and was incubated for 30 min at room temperature. Analyses were performed using the Attune® FACS machine (Life Technologies, Darmstadt, Germany) collecting data from the BL-2A channel. Doublet cells were excluded from the measurements by plotting BL-2A against BL-2H. A total of 20,000 events were collected for each cell cycle distribution. Each sample was measured in duplicate.
(§6) S1 Appendix. IC50 values measured by SRB Assay after 96 h. […] Measurements were carried out at least as thrice determination.

[6] = system: equine dermal fibroblasts PriFi2; assay: SRB assay after 96 h; assay type: cell-based, horse; details: PriFri2, 96 h of drug exposure
Description: as §5, §6

[7] = system: equine sarcoid [ES] cells sRGO2; assay: SRB assay after 96 h; assay type: cell-based, horse; details: sRGO2, 96 h of drug exposure
Description: as §5, §6

EMM cells MelDuWi [8] = details: read-out: 96-h IC50 value (sulforhodamine B assay); cited from earlier work
[9] = system: human carbonic anhydrase isoenzyme II; parameters: method as in PMID 15664816; details: cited from earlier work
[10] = system: human carbonic anhydrase isoenzyme IX; parameters: method as in PMID 15664816; details: cited from earlier work

## C=C(C)[C@@H]1CC[C@]2(C(=O)OCC(N)(CO)CO)CC[C@]3(C)[C@H](CC[C@@H]4[C@@]5(C)CC[C@H](OC(C)=O)C(C)(C)[C@@H]5CC[C@]43C)[C@@H]12 [NVX-207, 3-acetyl-betulinic acid-2-amino-3-hydroxy-2-hydroxymethyl-propanoate]
EMM cells MelDuWi [1]; 24 h
  AnnexinV staining: Living cells: 48,9%
  AnnexinV staining: early apop: 20,0%
  AnnexinV staining: late apop: 30,8%
  AnnexinV staining: necrotic: 0,3%
EMM cells MelDuWi [1]; 48 h
  AnnexinV staining: Living cells: 29,8%
  AnnexinV staining: early apop: 24,3%
  AnnexinV staining: late apop: 45% and 44.8%
ES cells sRGO2; sRGO2, 24 h
  AnnexinV staining: Living cells: 76,6%
  AnnexinV staining: early apop: 3,7%
  AnnexinV staining: late apop: 19,1%
  AnnexinV staining: necrotic: 0,5%
ES cells sRGO2; sRGO2, 48 h
  AnnexinV staining: Living cells: 38,5%
  AnnexinV staining: apoptotic cells (early and late): about 60%
  AnnexinV staining: early apop: 12,5%
  AnnexinV staining: late apop: 47,9%
[2]; PriFi1, 5 h
  IC50: 11 µM
[2]; PriFi1, 24 h
  IC50: 4 µM
[2]; PriFi1, 48 h
  IC50: 2 µM
[2]; PriFi1, 96 h
  IC50: < 1 µM
[2]; PriFi1, after 48 h, CVS
  NVX-207 exceeded BBSs' antiproliferative effects: about 23 times
Primary ES cells sRGO2; sRGO2, 5 h
  IC50: 6 µM
Primary ES cells sRGO2; sRGO2, 24 h
  IC50: < 1 µM
Primary ES cells sRGO2; sRGO2, 48 h
  IC50: < 1 µM
Primary ES cells sRGO2; sRGO2, after 48 h, CVS
  NVX-207 exceeded BBSs' antiproliferative effects: ~29 times
Primary EMM cells eRGO1; eRGO1, 5 h
  IC50: 10 µM
Primary EMM cells eRGO1; eRGO1, 24 h
  IC50: 5 µM
Primary EMM cells eRGO1; eRGO1, 48 h
  IC50: < 1 µM
Primary EMM cells eRGO1; eRGO1, 96 h
  IC50: < 1 µM
Primary EMM cells eRGO1; eRGO1, after 48 h, CVS
  NVX-207 exceeded BBSs' antiproliferative effects: about 25 times
[3]; 5 h
  IC50: 20 µM
[3]; 24 h
  IC50: 16 µM
[3]; 48 h
  IC50: 12 µM
[3]; 96 h
  IC50: 4 µM
[3]; after 48 h, CVS
  NVX-207 exceeded BBSs' antiproliferative effects: ~3 times
Primary ES cells sRGO1; sRGO1, 5 h
  IC50: 7 µM
Primary ES cells sRGO1; sRGO1, 24 h
  IC50: 7 µM
Primary ES cells sRGO1; sRGO1, 48 h
  IC50: < 1 µM
Primary ES cells sRGO1; sRGO1, after 48 h, CVS
  NVX-207 exceeded BBSs' antiproliferative effects: about 23 times
[4]; PriFi2, 5 h
  IC50: 14 µM
[4]; PriFi2, 24 h
  IC50: 8 µM
[4]; PriFi2, 48 h
  IC50: 7 µM
[4]; PriFi2, 96 h
  IC50: < 1 µM
[4]; PriFi2, after 48 h, CVS
  NVX-207 exceeded BBSs' antiproliferative effects: ~6 times
[5]
  IC50: 3.7 µM
[6]
  IC50: 3.8 µM
[7]
  IC50: 3.1 µM
EMM cells MelDuWi [8]
  IC50: 5.6 µM

## C=C(C)[C@@H]1CC[C@]2(COS(N)(=O)=O)CC[C@]3(C)[C@H](CC[C@@H]4[C@@]5(C)CC[C@H](OS(N)(=O)=O)C(C)(C)[C@@H]5CC[C@]43C)[C@@H]12 [BBS, (3β)-Lup-20(29)-ene-3,28-diol, 3,28-disulfamate]
[9]
  inhibition of carbonic anhydrase II: efficient inhibitor
EMM cells MelDuWi [1]; 24 h
  AnnexinV staining: Living cells: 77,8%
  AnnexinV staining: early apop: 6,3%
  AnnexinV staining: late apop: 15,4%
  AnnexinV staining: necrotic: 0,6%
EMM cells MelDuWi [1]; 48 h
  AnnexinV staining: Living cells: 60,6%
  AnnexinV staining: early apop: 7,5%
  AnnexinV staining: late apop: 28.2%
  AnnexinV staining: necrotic: 3,7%
ES cells sRGO2; sRGO2, 24 h
  AnnexinV staining: Living cells: 41,1%
  AnnexinV staining: early apop: 19,1%
  AnnexinV staining: late apop: 38,5%
  AnnexinV staining: necrotic: 1,3%
ES cells sRGO2; sRGO2, 48 h
  AnnexinV staining: Living cells: 8,7%
  AnnexinV staining: apoptotic cells (early and late): approximately 90%
  AnnexinV staining: early apop: 7,5%
  AnnexinV staining: late apop: 82% and 82.1%
  AnnexinV staining: necrotic: 1,8%
[2]; PriFi1, 5 h
  IC50: > 100 µM
[2]; PriFi1, 24 h
  IC50: 52 µM
[2]; PriFi1, 48 h
  IC50: 42 µM
[2]; PriFi1, 96 h
  IC50: 17 µM
Primary ES cells sRGO2; sRGO2, 5 h
  IC50: > 100 µM
Primary ES cells sRGO2; sRGO2, 24 h
  IC50: 38 µM
Primary ES cells sRGO2; sRGO2, 48 h
  IC50: 29 µM
Primary EMM cells eRGO1; eRGO1, 5 h
  IC50: > 100 µM
Primary EMM cells eRGO1; eRGO1, 24 h
  IC50: 42 µM
Primary EMM cells eRGO1; eRGO1, 48 h
  IC50: 25 µM
Primary EMM cells eRGO1; eRGO1, 96 h
  IC50: 15 µM
[3]; 5 h
  IC50: > 100 µM
[3]; 24 h
  IC50: 50 µM
[3]; 48 h
  IC50: 36 µM
[3]; 96 h
  IC50: 16 µM
Primary ES cells sRGO1; sRGO1, 5 h
  IC50: > 100 µM
Primary ES cells sRGO1; sRGO1, 24 h
  IC50: 40 µM
Primary ES cells sRGO1; sRGO1, 48 h
  IC50: 23 µM
[4]; PriFi2, 5 h
  IC50: > 100 µM
[4]; PriFi2, 24 h
  IC50: 62 µM
[4]; PriFi2, 48 h
  IC50: 39 µM
[4]; PriFi2, 96 h
  IC50: 16 µM
[5]
  IC50: 14.9 µM
[6]
  IC50: 19.6 µM
[7]
  IC50: 24.3 µM
[10]
  inhibition of carbonic anhydrase IX: efficient inhibitor
